{"source": "patent US20190369111A1", "about": "“MOLECULAR KINETICS EVALUATION METHOD AND SCREENING METHOD” (Tokyo University of Science Foundation, priority 2016, published 2019)", "biological_target": "T1, SOS1 protein (Homo sapiens, UniProt Q07889)", "T1 construct": "endogenous in cells; host or cells: HeLa cells", "T1 sequence (Q07889 1-1333)": "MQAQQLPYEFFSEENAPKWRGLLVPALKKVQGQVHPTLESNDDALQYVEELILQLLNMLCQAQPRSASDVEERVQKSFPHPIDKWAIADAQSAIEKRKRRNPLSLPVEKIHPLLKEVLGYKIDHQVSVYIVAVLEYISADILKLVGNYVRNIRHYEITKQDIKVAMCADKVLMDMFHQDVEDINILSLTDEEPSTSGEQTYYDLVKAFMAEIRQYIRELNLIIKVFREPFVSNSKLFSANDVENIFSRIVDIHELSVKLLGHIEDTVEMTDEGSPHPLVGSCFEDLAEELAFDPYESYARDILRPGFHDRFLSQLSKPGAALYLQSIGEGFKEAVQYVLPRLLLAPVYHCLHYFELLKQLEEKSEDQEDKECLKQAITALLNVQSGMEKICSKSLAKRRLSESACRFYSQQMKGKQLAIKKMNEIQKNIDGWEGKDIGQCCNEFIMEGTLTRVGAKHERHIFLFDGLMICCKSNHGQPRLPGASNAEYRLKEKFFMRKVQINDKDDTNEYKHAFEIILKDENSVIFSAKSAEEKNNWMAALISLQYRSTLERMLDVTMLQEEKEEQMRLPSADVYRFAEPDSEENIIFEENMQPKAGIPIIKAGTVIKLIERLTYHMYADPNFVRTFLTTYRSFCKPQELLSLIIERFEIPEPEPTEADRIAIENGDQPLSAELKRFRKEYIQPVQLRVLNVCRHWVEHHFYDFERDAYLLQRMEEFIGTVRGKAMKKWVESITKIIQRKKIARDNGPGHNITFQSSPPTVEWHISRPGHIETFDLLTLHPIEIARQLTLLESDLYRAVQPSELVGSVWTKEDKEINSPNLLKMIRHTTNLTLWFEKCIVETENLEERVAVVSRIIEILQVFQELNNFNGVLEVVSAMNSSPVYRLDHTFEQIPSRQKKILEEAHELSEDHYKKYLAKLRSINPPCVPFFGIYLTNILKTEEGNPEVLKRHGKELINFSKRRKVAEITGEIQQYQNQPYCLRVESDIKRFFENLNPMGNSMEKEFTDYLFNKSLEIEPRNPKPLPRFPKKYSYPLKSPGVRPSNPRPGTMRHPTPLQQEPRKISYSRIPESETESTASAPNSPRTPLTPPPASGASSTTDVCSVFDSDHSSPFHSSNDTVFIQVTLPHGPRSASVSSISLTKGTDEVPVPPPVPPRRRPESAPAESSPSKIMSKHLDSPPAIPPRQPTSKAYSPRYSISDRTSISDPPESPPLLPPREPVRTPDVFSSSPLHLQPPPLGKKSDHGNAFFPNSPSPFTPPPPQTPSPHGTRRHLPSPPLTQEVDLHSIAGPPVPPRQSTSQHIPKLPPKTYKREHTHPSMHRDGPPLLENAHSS", "assay": "Amount of SOS1 protein in HeLa cells, Western blot analysis", "type": "cell-based", "settings": "48 hours after addition", "method": "HeLa cells were seeded in a 24-well plate at a cell density of 8×10^4 cells/well, and then cultured under conditions of 37° C. and 5 vol % CO2 for 16 hours.\nAfter 16 hours from cell seeding, TUS-007 was added to HeLa cells as follows. As a medium, a serum-free medium (37° C.) in which 1 mass % L-glutamine solution (Sigma-Aldrich) was added to D-MEM (high D-glucose, phenol red, sodium pyruvate (Wako Pure Chemical Industries, Ltd.)) was used. It is noted that the L-glutamine solution was added immediately before use. A DMSO solution containing TUS-007 was mixed with the medium so that the concentration of DMSO was 1 vol %, and added to each well at 500 μL/well, and cultured under conditions of 37° C. and 5 vol % CO2. As a control, DMSO was used.\nThe medium was removed 48 hours after addition of TUS-007, and then PBS was added to wash the cells. […]\nAfter electrophoresis, proteins were transferred to a PVDF membrane (Immobion™-P, Millipore) under conditions of 100 V and 2 hours using a tank-type blotting device and a transfer buffer (25 mM Tris-HCl, 195 mM glycine, 0.01% SDS, 15% methanol). […] Subsequently, the membrane was treated with a chemiluminescence reagent Immobilon™ Western (Millipore), and then chemiluminescence was detected using a lumino image analyzer LAS-3000 (FUJIFILM Corporation). […]", "data": [{"compound": "CC[C@@H](C)[C@H](NC(=O)CCCCCCNC(=O)[C@H](CC(C)C)NC(=O)CNC(=O)c1cc(Cl)ccc1Cl)C(=O)Nc1ccc2[nH]c(Cc3c[nH]c4ccccc34)nc2c1", "note": "[TUS-007]", "values": [{"measurement": "amount of SOS1 protein", "value": "not reduced"}]}]}
